According to patent US5981489A, “Non-aqueous protic peptide formulations” (Alza Corporation, priority 1997, dated 1999):
Values belong to the molecule of their own block, whether it stands above or below them.

Tests used:
Type in all cases: physicochemical
[1] = Stability of goserelin formulations, one month at 37° C., RP-HPLC; details: for % CONCENTRATION: method called unreliable
Method: (§1) Stability samples were analyzed using RP-HPLC. The area under the curve for the leuprolide peak divided by the sum of the areas under the curve of all peaks gave % purity. [It should be noted that the data for % concentration presented with the % purity data (Examples 6, 8, 9 and 10) are inconclusive. The analysis methods used to determine % concentration in these experiments were unreliable.]
Formulations of 40-45% (w/w) goserelin in either PEG 600 or PG/acetate buffer (30:70) were prepared as described above and placed in polymeric containers. The containers were stored at 37° C. for one month in an incubator. The samples were analyzed using RP-HPLC to determine the chemical stability of the aged formulations.

[2] = Gelation of non-aqueous protic solvent formulations on adding polar aprotic solvent
Description: Thus, these solvents have an anti-gellant effect.

[3] = Stability of nafarelin formulations, one month at 37° C., RP-HPLC
Method: as §1
Formulations of 15% (w/w) nafarelin in either PEG 600 or propylene glycol were prepared as described above for leuprolide and placed in polymeric containers.
The containers were stored at 37° C. for one month in an incubator.
The samples were analyzed using RP-HPLC to determine the chemical stability of the aged formulations.

[4] = 40-45% (w/w) in vehicle PEG 600, one month at 37° C.
[5] = 40-45% (w/w) in vehicle PG/Acetate Buffer(30:70), one month at 37° C.
[6] = 15% (w/w) in vehicle PEG 600, one month at 37° C.
[7] = 15% (w/w) in vehicle PG, one month at 37° C.

- % PURITY [1, 4]: 99.3%
- % CONCENTRATION [1, 4]: 23.6%
- % PURITY [1, 5]: 98.2%
- % CONCENTRATION [1, 5]: 49.7%
- effect of adding polar aprotic solvents such as DMSO on gelation of the formulation [2]: prevents gelation
Molecule: CC(C)C[C@H](NC(=O)[C@@H](COC(C)(C)C)NC(=O)[C@H](Cc1ccc(O)cc1)NC(=O)[C@H](CO)NC(=O)[C@H](Cc1c[nH]c2ccccc12)NC(=O)[C@H](Cc1cnc[nH]1)NC(=O)[C@@H]1CCC(=O)N1)C(=O)N[C@@H](CCCNC(=N)N)C(=O)N1CCC[C@H]1C(=O)NNC(N)=O [goserelin]

- effect of adding polar aprotic solvents such as DMSO on gelation of the formulation [2]: prevents gelation
Molecule: CCNC(=O)[C@@H]1CCCN1C(=O)[C@H](CCCNC(=N)N)NC(=O)[C@H](CC(C)C)NC(=O)[C@@H](CC(C)C)NC(=O)[C@H](Cc1ccc(O)cc1)NC(=O)[C@H](CO)NC(=O)[C@H](Cc1c[nH]c2ccccc12)NC(=O)[C@H](Cc1c[nH]cn1)NC(=O)[C@@H]1CCC(=O)N1 [leuprolide]

- % CONCENTRATION [3, 6]: 15.8%
- % PURITY [3, 6]: 99.4%
- % CONCENTRATION [3, 7]: 12.9%
- % PURITY [3, 7]: 99.4%
Molecule: CC(C)C[C@H](NC(=O)[C@@H](Cc1ccc2ccccc2c1)NC(=O)[C@H](Cc1ccc(O)cc1)NC(=O)[C@H](CO)NC(=O)[C@H](Cc1c[nH]c2ccccc12)NC(=O)[C@H](Cc1c[nH]cn1)NC(=O)[C@@H]1CCC(=O)N1)C(=O)N[C@@H](CCCNC(=N)N)C(=O)N1CCC[C@H]1C(=O)NCC(N)=O [nafarelin]

- effect of adding polar aprotic solvents such as DMSO on gelation of the formulation [2]: prevents gelation
Molecule: calcitonin
